Test results published in patent publication US20260355171A1, “INHIBITORS AND USES THEREFOR” (priority 2022, published 2026).

How the values were obtained:
[1] = test system: Delta variant of SARS-CoV-2
[2] = test system: Omicron variant of SARS-CoV-2

Structure (SMILES): NC(=O)C1CCN(c2ncccc2CNCc2cccc3[nH]ccc23)CC1 [Compound 22]
- Titre of Delta variant [1]: Significant reduction of titres
- Titre of Omicron variant [2]: Significant reduction of titres
